Laboratory results: patent US20110130371A1, “C-ring-substituted pregn-4-ene-21,17-carbolactones, and pharmaceutical preparations comprising the same” (BAYER SCHERING PHARMA AKTIENGESSELSCHAFT, priority 2008, published 2011)

Key:
IDI1 mRNA = experiment: Antiandrogenic effect in orchidectomized rats, gene expression in prostate tissue (TaqMan PCR); conditions: for antiandrogenic effect (in words): IDI1 gene expression, orchidectomized rats; for fold induction at 10 mg/kg: Rattus norvegicus, 24 h, read-out: x-fold induction factor of IDI1 mRNA after TP administration; for Antiandrogenic effect (% inhibition): inhibition of TP-induced IDI1 mRNA induction, prostate, 24 hours
Procedure: As a modification of the Hershberger assay described above, in addition animals were sacrificed 24 hours after the first treatment (1 mg/kg TP, 10 mg/kg test substance), and prostate tissue was shock-frozen immediately after the autopsy and then employed for mRNA isolation. A quantitative PCR method (TagMan) was used to investigate the induction (x-fold induction factor) of androgen-stimulated genes, inter alis of steroid biosynthesis (e.g. IDI1, NM 004508.2) as a measure of the androgenic effect of TP and the inhibition thereof by the compounds of the invention.

orchidectomized rats = experiment: Antiandrogenic effect in orchidectomized rats (Hershberger); type: in vivo, rat; conditions: for Antiandrogenic effect (% inhibition): 1 mg/kg/day TP s.c. plus 10 mg/kg/day test substance for seven days, prostate weight; for antiandrogenic effect (in words): Hershberger
Procedure: This entails testing the suitability of the compounds for inhibiting the androgen-dependent growth of prostate, seminal vesicle and levator ani muscle in young, male, castrated rats receiving androgen replacement.
For this purpose, young rats are initially castrated. Eight days after the orchidectomy, the animals receive 1 mg/kg/day testosterone propionate (TP) s.c. alone or in combination with the test substances (10 mg/kg/day) for seven days.
On day 15 after the orchidectomy, the animals are sacrificed, and prostate, seminal vesicle and levator ani muscle are dissected out, and the relative wet weight is determined. The inhibited androgen-induced growth serves as a measure of the antiandrogenic effect of the test substance.

[1] = target: T1, human androgen receptor (hAR) (Homo sapiens, UniProt P10275); experiment: Antiandrogen transactivation assay (PC3 cells, hAR, MMTV-luciferase reporter); type: cell-based; conditions: for IC50: PC3 cells stably transfected with hAR and MMTV-luciferase, 16 hours incubation, read-out: IC50, antiandrogenic effect in the transactivation assay; for Efficacy: per cent of the maximum effect of reference antiandrogen hydroxyflutamide
T1 construct: expressed in transfected cells; host or cells: PC3 cells, stably transfected with hAR and an MMTV-luciferase reporter
T1 sequence (P10275 1-920): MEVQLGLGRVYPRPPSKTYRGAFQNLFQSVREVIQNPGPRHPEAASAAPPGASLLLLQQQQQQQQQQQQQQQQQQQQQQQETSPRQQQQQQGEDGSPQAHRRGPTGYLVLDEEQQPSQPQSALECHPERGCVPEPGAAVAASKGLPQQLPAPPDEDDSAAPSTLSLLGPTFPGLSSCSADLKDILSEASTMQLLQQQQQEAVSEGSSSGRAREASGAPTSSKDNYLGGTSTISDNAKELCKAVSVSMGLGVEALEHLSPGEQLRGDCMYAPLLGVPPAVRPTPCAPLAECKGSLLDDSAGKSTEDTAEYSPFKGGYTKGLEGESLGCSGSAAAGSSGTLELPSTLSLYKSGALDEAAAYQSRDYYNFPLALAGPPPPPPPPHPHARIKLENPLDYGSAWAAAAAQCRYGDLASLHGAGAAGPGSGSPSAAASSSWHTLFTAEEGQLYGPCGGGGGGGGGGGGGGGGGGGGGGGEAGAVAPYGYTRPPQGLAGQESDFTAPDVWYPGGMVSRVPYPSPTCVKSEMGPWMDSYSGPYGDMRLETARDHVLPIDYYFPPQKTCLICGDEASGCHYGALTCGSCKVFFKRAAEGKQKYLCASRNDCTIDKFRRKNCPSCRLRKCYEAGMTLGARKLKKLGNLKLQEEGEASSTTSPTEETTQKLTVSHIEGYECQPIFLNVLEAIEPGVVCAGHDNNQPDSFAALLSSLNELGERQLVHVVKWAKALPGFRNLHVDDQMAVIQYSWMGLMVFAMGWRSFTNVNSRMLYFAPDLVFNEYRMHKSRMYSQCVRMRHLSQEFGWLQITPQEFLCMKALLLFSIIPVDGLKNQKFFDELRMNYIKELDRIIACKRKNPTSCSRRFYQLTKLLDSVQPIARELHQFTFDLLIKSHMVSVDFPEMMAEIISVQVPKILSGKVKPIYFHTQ
Procedure: The antiandrogenic effect was carried out as described in Schneider et al. (Schneider K., Graf E., Irran E., Nicholson G., Stainsby F. M., Goodfellow M., Borden S. A., Keller S., Süssmuth R. D. and Fiedler H. P. (2008) Bendigoles A˜C, New Steroids from Gordonia australis Acta 2299, J. Antibiotics (Tokyo) 61 (6), 356-364).
The culture medium used for culturing cells used for the assay was RPMI (PAA, #E15-49) with 10% FCS, […] L-glutamine, 100 U/100 ug/ml penicillin/streptomycin. Reporter cell lines (PC3 cells stably transfected with human androgen receptor (hAR) and a reporter construct which comprises luciferase under the control of an androgen-responsive promoter (MMTV)) were grown at a density of 4×10^4 cells per well in white, opaque tissue culture plates with 96 wells in each (Perkin Elmer, #P12-106-017) and maintained in culture medium with 3% DCC-FCS (serum treated with activated carbon to remove interfering components present in the serum). The compounds to be investigated were added eight hours later, and the cells were incubated with the compounds for 16 hours. The experiments were carried out in triplicate. At the end of the incubation, the effector-containing medium was removed and replaced by lysis buffer.
After luciferase assay substrate (Promega, #E1501) had been added, the plates with the 96 wells were then inserted into a microplate luminometer (Pherastar, BMG labtech), and the luminescence was measured. The IC50 values were evaluated using software for calculating dose-activity relationships. The efficacy indicates the per cent of the maximum effect by comparison with the maximum effect of a reference antiandrogen (hydroxyflutamide).

adrenalectomized rats = experiment: Antimineralocorticoid effect in adrenalectomized rats (diuresis experiment); type: in vivo, rat; conditions: for ED50, antimineralocorticoid effect in the diuresis experiment: adrenalectomized male rats, s.c., aldosterone 1 μg/kg/h, AUC of urinary Na/K ratio
Procedure: The antimineralocorticoid effect of the compounds was determined as described by Losert at al. (Losert, W., Casals-Stenzel, J., and Buse, M. (1985). Progestogens with antimineralocorticoid activity. Arzneimittelforschung 35, 459-471).
Male animals weighing 180-200 g were adrenalectomized 5 days before the experiment and received replacement with glucocorticoids. A diuresis experiment was carried out on day 5 after the adrenalectomy. A continuous infusion of isotonic NaCl solution plus 5% glucose was administered i.v. to the animals. Simultaneous administration of 1 μg/kg/h d-aldosterone achieved a constant mineralocorticoid effect, identifiable from sodium retention and kaliuresis. The test compounds were administered s.c. in various dosages (3, 10 and 30 mg/kg), and the abolition of the aldosterone-induced sodium retention indicates an antimineralocorticoid effect.
The animals were kept in metabolism cages and urine fractions were collected each hour. The sodium and potassium ion concentration in the urine was determined by a flame-photometry method, and the Na/K ratio was calculated therefrom. The Na/K ratios were plotted against time and the area under the curve [AUC] was determined. The ED50 (concentration at which the half-maximum effect occurs) was determined as a measure of the antimineralocorticoid potency.

ovariectomized rats [2] = experiment: Progestational effect in ovariectomized rats (pregnancy maintenance test); type: in vivo, rat; conditions: ovariectomized pregnant rats, 5 μg/kg/d oestrone, treatment from day 8 p.c. for 6 days
Procedure: This entails investigating the ability of the compounds to compensate for the lack of progesterone in ovariectomized animals which no longer have their own progesterone synthesis and to maintain pregnancy (“pregnancy maintenance”).
Female animals weighing 200-230 g were mated. The animals were ovariectomized on day 8 post coitum (p.c.) and treated with 5 μg/kg/d oestrone. The compounds to be tested were given in various concentrations (3, 10, 30 mg/kg/d). Treatment was started on day 8 p.c. and continued for 6 days.
One day after the last treatment, the animals were autopsied. The degree of pregnancy maintenance was calculated by dividing the number of live fetuses by the number of detectable implantation sites. The presence of a beating heart was decisive for assessing a fetus as alive. No identifiable implantation sites (ovariectomized controls) was defined as 0% pregnancy maintenance.
The ED50 (concentration at which the half-maximum effect occurs) was determined as a measure of the progestational potency.

ovariectomized rats [3] = experiment: Modified pregnancy maintenance experiment with pharmacokinetic/pharmacodynamic model (AUC versus pregnancy maintenance); type: in vivo; conditions: rat, calculated from physiologically based PK model
Description: In order to describe the difference in their progestational potency more precisely, in a modified pregnancy maintenance experiment blood samples were additionally taken at various times to determine pharmacokinetic parameters. The rats were pretreated in this case as described in the preceding experiment. A physiologically based pharmacokinetic model was developed using the programmes PK-SIM, version 4.0.1 (Bayer Technology Services, Leverkusen, Germany), GastroPlus version 5.2 (Simulations Plus, Inc., Lancaster, Calif., USA) and WinNonlin® Professional (version 5.2, Pharsight Corp., Mountain View, Calif., USA).
The relation was found between the AUC (area under the curve of the time-concentration profile) reached during the experiment and the measured pharmacological effect, i.e. the pregnancy maintenance achieved. The model thus permitted estimation of AUC50 values.
Based on the relation between systemic exposure and effect, the AUC in blood necessary to achieve 80% pregnancy maintenance in the rat model was calculated (Table 2).

Structure (SMILES) | antiandrogenic effect (in words) (IDI1 mRNA) | fold induction at 10 mg/kg (IDI1 mRNA) | Antiandrogenic effect (% inhibition) (IDI1 mRNA; 10 mg/kg test substance) | Antiandrogenic effect (% inhibition) (orchidectomized rats) | antiandrogenic effect (in words) (orchidectomized rats) | IC50 [1] | Efficacy [1] | ED50, antimineralocorticoid effect in the diuresis experiment (adrenalectomized rats) | ED50, progestational effect in the pregnancy maintenance test (ovariectomized rats [2]) | AUC (blood, calculated) in rats necessary for 80% pregnancy maintenance (ovariectomized rats [3]) | ED50 (adrenalectomized rats; Rattus norvegicus, sc) | x-fold induction factor of IDI1 mRNA after TP administration (IDI1 mRNA; prostate tissue 24 hours after first treatment, 1 mg/kg TP, 10 mg/kg test substance)
CC(=O)O[C@]1(C(C)=O)CC[C@H]2[C@@H]3C=C(Cl)C4=CC(=O)[C@@H]5C[C@@H]5[C@]4(C)[C@H]3CC[C@@]21C [Cyproterone acetate, cyproterone acetate] | strong antiandrogenic effect | 1.53 | 91% | 73.1% | strong antiandrogenic effect | – | – | – | – | – | – | –
C[C@]12CCC(=O)C=C1[C@@H]1C[C@@H]1C1C2=CC[C@@]2(C)C1[C@@H]1C[C@@H]1[C@@]21CCC(=O)O1 (stereo partly drawn) [Compound of Ex. 1, 6β,7β;15β,16β-Dimethylene-3-oxo-17-pregna-4,9(11)-diene-21,17β-carbolactone] | no antiandrogenic effect | 7.89 | <0% | <0% | – | 240 nM | 19.3 per cent | 5.9 mg/kg/day | 2.9 mg/kg/day | 210 (μg*h/L) | – | –
C[C@]12CCC(=O)C=C1[C@@H]1C[C@@H]1C1C2CC[C@@]2(C)C1[C@@H]1C[C@@H]1[C@@]21CCC(=O)O1 (stereo partly drawn) [Drospirenone, 6β,7β-15β,16β-dimethylene-3-oxo-17-pregn-4-ene-21,17β-carbolactone] | smaller but distinct antiandrogenic effect | – | 27% | 22.5% | smaller but distinct antiandrogenic effect | – | – | – | 10 mg/kg/day | 1346 (μg*h/L) | 6.7 mg/kg | –
C[C@]12CCC(=O)C=C1[C@@H]1C[C@@H]1C1C2[C@@H](F)C[C@@]2(C)C1[C@@H]1C[C@@H]1[C@@]21CCC(=O)O1 (single isomer, unassigned) [Compound of Ex. 2, 6β,7β;15β,16β-Dimethylene-11β-fluoro-3-oxo-17-pregn-4-ene-21,17β-carbolactone] | – | – | – | 3.8% | – | 160 nM | 31.9 per cent | 12.36 mg/kg/day | 3.4 mg/kg/day | – | – | –
CCC(=O)O[C@H]1CC[C@H]2[C@@H]3CCC4=CC(=O)CC[C@]4(C)[C@H]3CC[C@]12C [TP, testosterone propionate] | – | – | – | – | – | – | – | – | – | – | – | 7.07
